Read-outs that look alike come from different tables or passages of the source.
What was measured:
[1] = tested on: M. tuberculosis rrl mutant C-401; assay type: cell-based, Mycobacterium tuberculosis
M. tuberculosis [2] = assay type: cell-based, Mycobacterium tuberculosis
M. tuberculosis [3] = settings: tlyA mutants 315-A, C-202 and C-211; cited from earlier work

Row | Molecule | effect on growth rate [1] | susceptibility (M. tuberculosis [2]) | susceptibility (M. tuberculosis [3])
1 | capreomycin | do not noticeably slow the growth rate |  | 
2 | NCC[C@H](O)C(=O)N[C@@H]1C[C@H](N)[C@@H](O[C@H]2O[C@H](CN)[C@@H](O)[C@H](O)[C@H]2O)[C@H](O)[C@H]1O[C@H]1O[C@H](CO)[C@@H](O)[C@H](N)[C@H]1O [amikacin] |  | susceptible | susceptible

From patent US20100292137A1, “Antibiotics and Methods For Producing Them” (priority 2006, published 2010)
